Test results published in patent US20240158446A1, “CYCLIC COMPOUND HAVING SELECTIVE INHIBITORY ACTION ON KRAS OVER HRAS AND NRAS” (CHUGAI SEIYAKU KABUSHIKI KAISHA, priority 2021, published 2024).

Key:
[1] = biological target: GDP-bound KRAS wild-type protein (Homo sapiens, UniProt P01116); experiment: Binding to KRAS by surface plasmon resonance (SPR), Single Cycle Kinetics; conditions: SPR, Single Cycle Kinetics, 1:1 binding model; GDP-bound KRAS wild-type protein; read-out: KRAS KD
[2] = biological target: GDP-bound HRAS wild-type protein (Homo sapiens, UniProt P01112); experiment: Binding to HRAS by surface plasmon resonance (SPR), Single Cycle Kinetics; conditions: SPR; GDP-bound HRAS wild-type protein vs GDP-bound KRAS wild-type protein; KD ratio class
Chain of GDP-bound HRAS wild-type protein (P01112 whole entry): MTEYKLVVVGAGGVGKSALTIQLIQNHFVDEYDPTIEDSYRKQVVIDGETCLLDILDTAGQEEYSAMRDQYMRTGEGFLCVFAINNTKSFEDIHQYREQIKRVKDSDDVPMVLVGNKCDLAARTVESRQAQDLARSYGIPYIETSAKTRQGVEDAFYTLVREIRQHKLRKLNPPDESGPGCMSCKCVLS

[3] = biological target: GDP-bound NRAS wild-type protein (Homo sapiens, UniProt P01111); experiment: Binding to NRAS by surface plasmon resonance (SPR), Single Cycle Kinetics; conditions: SPR; GDP-bound NRAS wild-type protein vs GDP-bound KRAS wild-type protein; KD ratio class
Chain of GDP-bound NRAS wild-type protein (P01111 whole entry): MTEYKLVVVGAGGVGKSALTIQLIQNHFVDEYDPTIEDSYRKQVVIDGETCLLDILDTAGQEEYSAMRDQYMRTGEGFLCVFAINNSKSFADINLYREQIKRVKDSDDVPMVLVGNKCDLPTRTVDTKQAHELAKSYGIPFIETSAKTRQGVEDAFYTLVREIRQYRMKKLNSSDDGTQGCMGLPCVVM

[4] = tested on: human lung cancer strain NCI-H441;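 also: cell proliferation inhibition after four days measured by CellTiter-Glo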

Chain of GDP-bound KRAS wild-type protein (P01116 whole entry): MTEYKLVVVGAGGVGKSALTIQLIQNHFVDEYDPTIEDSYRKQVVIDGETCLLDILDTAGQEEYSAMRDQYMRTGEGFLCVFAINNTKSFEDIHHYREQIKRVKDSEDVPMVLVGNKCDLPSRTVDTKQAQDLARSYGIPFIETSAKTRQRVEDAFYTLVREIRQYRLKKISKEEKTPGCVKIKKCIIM

Kd [1]	IC50 [4]	SMILES	HRAS/KRAS (ratio of KD value for HRAS to KD value for KRAS) [2]	NRAS/KRAS (ratio of KD value for NRAS to KD value for KRAS) [3]
0.032 nM	7.5 nM	CCO[C@@H]1C[C@H]2C(=O)NC3(CC(F)(F)C3)C(=O)N(C)[C@@H](C3CCCC3)C(=O)N(C)[C@H](C(=O)N(C)C)CC(=O)N(C)[C@@H](CC)C(=O)N[C@@H]([C@@H](C)CC)C(=O)N(C)CC(=O)N(C)[C@H]3C/C=C\CCN(C3=O)[C@@H](Cc3ccc(C(F)(F)F)cc3)C(=O)N(C)CC(=O)N[C@@H](CCc3cc(F)c(C(F)(F)F)c(F)c3)C(=O)N2C1 [PP1274, (2S,8S,12R,14S,20S,23S,27S,30S,36S,38Z)-20-cyclopentyl-8-[2-[3,5-difluoro-4-(trifluoromethyl)phenyl]ethyl]-12-ethoxy-27-ethyl-1′,1′-difluoro-N,N,4,19,22,26,32,35-octamethyl-30-[(1S)-1-methylpropyl]-3,6,9,15,18,21,25,28,31,34,42-undecaoxo-2-[[4-(trifluoromethyl)phenyl]methyl]spiro[1,4,7,10,16,19,22,26,29,32,35-undecazatricyclo[34.5.1.0^10,14]dotetracont-38-ene-17,3′-cyclobutane]-23-carboxamide]	A (a compound having 10 or more and less than 20 is denoted as A)	A (a compound having 10 or more and less than 20 is denoted as A)
0.047 nM	4.9 nM	CCO[C@@H]1C[C@H]2C(=O)NC3(CC(C)(C)C3)C(=O)N(C)[C@@H](C3CCCC3)C(=O)N(C)[C@H](C(=O)N(C)C)CC(=O)N(C)[C@@H](CC)C(=O)N[C@@H]([C@@H](C)CC)C(=O)N(C)CC(=O)N(C)[C@H]3C/C=C\CCN(C3=O)[C@@H](Cc3ccc(C(F)(F)F)cc3)C(=O)N(C)CC(=O)N[C@@H](CCc3cc(F)c(C(F)(F)F)c(F)c3)C(=O)N2C1 [PP1275, (2S,8S,12R,14S,20S,23S,27S,30S,36S,38Z)-20-cyclopentyl-8-[2-[3,5-difluoro-4-(trifluoromethyl)phenyl]ethyl]-12-ethoxy-27-ethyl-N,N,3′,3′,4,19,22,26,32,35-decamethyl-30-[(1S)-1-methylpropyl]-3,6,9,15,18,21,25,28,31,34,42-undecaoxo-2-[[4-(trifluoromethyl)phenyl]methyl]spiro[1,4,7,10,16,19,22,26,29,32,35-undecazatricyclo[34.5.1.0^10,14]dotetracont-38-ene-17,1′-cyclobutane]-23-carboxamide]	A (a compound having 10 or more and less than 20 is denoted as A)	A (a compound having 10 or more and less than 20 is denoted as A)
0.066 nM	20.8 nM	CCO[C@@H]1C[C@H]2C(=O)NC3(CCCC3)C(=O)N(C)[C@@H](C3CCCC3)C(=O)N(C)[C@H](C(=O)N(C)C)CC(=O)N(C)[C@@H](CC)C(=O)N[C@@H]([C@@H](C)CC)C(=O)N(C)CC(=O)N(C)[C@H]3C/C=C\CCN(C3=O)[C@@H](Cc3ccc(C(F)(F)F)cc3)C(=O)N(C)CC(=O)N[C@@H](CCc3cc(F)c(C(F)(F)F)c(F)c3)C(=O)N2C1 [PP1276, (2S,8S,12R,14S,20S,23S,27S,30S,36S,38Z)-20-cyclopentyl-8-[2-[3,5-difluoro-4-(trifluoromethyl)phenyl]ethyl]-12-ethoxy-27-ethyl-N,N,4,19,22,26,32,35-octamethyl-30-[(1S)-1-methylpropyl]-3,6,9,15,18,21,25,28,31,34,42-undecaoxo-2-[[4-(trifluoromethyl)phenyl]methyl]spiro[1,4,7,10,16,19,22,26,29,32,35-undecazatricyclo[34.5.1.0^10,14]dotetracont-38-ene-17,1′-cyclopentane]-23-carboxamide]	B (a compound having 3 or more and less than 10 is denoted as B)	A (a compound having 10 or more and less than 20 is denoted as A)
0.25 nM	79.8 nM	CCO[C@@H]1C[C@H]2C(=O)NC3(CCCCC3)C(=O)N(C)[C@@H](C3CCCC3)C(=O)N(C)[C@H](C(=O)N(C)C)CC(=O)N(C)[C@@H](CC)C(=O)N[C@@H]([C@@H](C)CC)C(=O)N(C)CC(=O)N(C)[C@H]3C/C=C\CCN(C3=O)[C@@H](Cc3ccc(C(F)(F)F)cc3)C(=O)N(C)CC(=O)N[C@@H](CCc3cc(F)c(C(F)(F)F)c(F)c3)C(=O)N2C1 [PP1277]	A (a compound having 10 or more and less than 20 is denoted as A)	A (a compound having 10 or more and less than 20 is denoted as A)
0.14 nM	45.7 nM	CCO[C@@H]1C[C@H]2C(=O)NC3(COC3)C(=O)N(C)[C@@H](C3CCCC3)C(=O)N(C)[C@H](C(=O)N(C)C)CC(=O)N(C)[C@@H](CC)C(=O)N[C@@H]([C@@H](C)CC)C(=O)N(C)CC(=O)N(C)[C@H]3C/C=C\CCN(C3=O)[C@@H](Cc3ccc(C(F)(F)F)cc3)C(=O)N(C)CC(=O)N[C@@H](CCc3cc(F)c(C(F)(F)F)c(F)c3)C(=O)N2C1 [PP1278, (2S,8S,12R,14S,20S,23S,27S,30S,36S,38Z)-20-cyclopentyl-8-[2-[3,5-difluoro-4-(trifluoromethyl)phenyl]ethyl]-12-ethoxy-27-ethyl-N,N,4,19,22,26,32,35-octamethyl-30-[(1S)-1-methylpropyl]-3,6,9,15,18,21,25,28,31,34,42-undecaoxo-2-[[4-(trifluoromethyl)phenyl]methyl]spiro[1,4,7,10,16,19,22,26,29,32,35-undecazatricyclo[34.5.1.0^10,14]dotetracont-38-ene-17,3′-oxetane]-23-carboxamide]	B (a compound having 3 or more and less than 10 is denoted as B)	A (a compound having 10 or more and less than 20 is denoted as A)
0.27 nM	72.6 nM	CCO[C@@H]1C[C@H]2C(=O)NC3(CCOCC3)C(=O)N(C)[C@@H](C3CCCC3)C(=O)N(C)[C@H](C(=O)N(C)C)CC(=O)N(C)[C@@H](CC)C(=O)N[C@@H]([C@@H](C)CC)C(=O)N(C)CC(=O)N(C)[C@H]3C/C=C\CCN(C3=O)[C@@H](Cc3ccc(C(F)(F)F)cc3)C(=O)N(C)CC(=O)N[C@@H](CCc3cc(F)c(C(F)(F)F)c(F)c3)C(=O)N2C1 [PP1279]	A (a compound having 10 or more and less than 20 is denoted as A)	A (a compound having 10 or more and less than 20 is denoted as A)
0.15 nM	34.4 nM	CCO[C@@H]1C[C@H]2C(=O)NC(C)(C)C(=O)N(C)[C@@H](C3CCCC3)C(=O)N(C)[C@H](C(=O)N(C)C)CC(=O)N(C)[C@@H](CC)C(=O)N[C@@H]([C@@H](C)CC)C(=O)N(C)CC(=O)N(C)[C@H]3C/C=C\CCN(C3=O)[C@@H](Cc3ccc(C(F)(F)F)cc3)C(=O)N(C)CC(=O)N[C@@H](CCc3cc(F)c(C(F)(F)F)c(F)c3)C(=O)N2C1 [PP1280]	A (a compound having 10 or more and less than 20 is denoted as A)	A (a compound having 10 or more and less than 20 is denoted as A)
0.14 nM	10.2 nM	CCO[C@@H]1C[C@H]2C(=O)NC3(CCC3)C(=O)N(C)[C@@H](C3CCCC3)C(=O)N(C)[C@H](C(=O)N3CCOCC3)CC(=O)N(C)[C@@H](CC)C(=O)N[C@@H]([C@@H](C)CC)C(=O)N(C)CC(=O)N(C)[C@H]3C/C=C\CCN(C3=O)[C@@H](Cc3ccc(C(F)(F)F)cc3)C(=O)N(C)CC(=O)N[C@@H](CCc3ccc(C(F)(F)F)c(Cl)c3)C(=O)N2C1 [PP1281, (2S,8S,12R,14S,20S,23S,27S,30S,36S,38Z)-8-[2-[3-chloro-4-(trifluoromethyl)phenyl]ethyl]-20-cyclopentyl-12-ethoxy-27-ethyl-4,19,22,26,32,35-hexamethyl-30-[(1S)-1-methylpropyl]-23-(morpholine-4-carbonyl)-2-[[4-(trifluoromethyl)phenyl]methyl]spiro[1,4,7,10,16,19,22,26,29,32,35-undecazatricyclo[34.5.1.0^10,14]dotetracont-38-ene-17,1′-cyclobutane]-3,6,9,15,18,21,25,28,31,34,42-undecone]	A (a compound having 10 or more and less than 20 is denoted as A)	AA (a compound having 20 or more is denoted as AA)
0.2 nM	12.3 nM	CCO[C@@H]1C[C@H]2C(=O)NC3(CCC3)C(=O)N(C)[C@@H](C3CCCC3)C(=O)N(C)[C@H](C(=O)N3CCOCC3)CC(=O)N(C)[C@@H](CC(C)C)C(=O)N[C@@H]([C@@H](C)CC)C(=O)N(C)CC(=O)N(C)[C@H]3C/C=C\CCN(C3=O)[C@@H](Cc3ccc(C(F)(F)F)cc3)C(=O)N(C)CC(=O)N[C@@H](CCc3cc(F)c(C(F)(F)F)c(F)c3)C(=O)N2C1 [PP1282]	A (a compound having 10 or more and less than 20 is denoted as A)	A (a compound having 10 or more and less than 20 is denoted as A)
0.2 nM	42.6 nM	CCO[C@@H]1C[C@H]2C(=O)NC3(CCC3)C(=O)N(C)[C@@H](C3CCCC3)C(=O)N(C)[C@H](C(=O)N3CCOCC3)CC(=O)N(C)[C@@H](CC3CC3)C(=O)N[C@@H]([C@@H](C)CC)C(=O)N(C)CC(=O)N(C)[C@H]3C/C=C\CCN(C3=O)[C@@H](Cc3ccc(C(F)(F)F)cc3)C(=O)N(C)CC(=O)N[C@@H](CCc3cc(F)c(C(F)(F)F)c(F)c3)C(=O)N2C1 [PP1283]	A (a compound having 10 or more and less than 20 is denoted as A)	AA (a compound having 20 or more is denoted as AA)
